According to the supplement of paper PMC7796163:
± gives the uncertainty stated by the source.

Experiments:
Assay in all cases: CYP enzyme activity (probe substrate metabolite formation) fold change vs solvent control; higher = stronger induction of CYP activity
Settings in all cases: HepaRG
CYP3A4 = CYP3A4 (UniProt P08684)
Procedure: (§1)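 Differentiated HepaRG cells were treated with 1, 5 or 10 µM of each PAH (0.5% DMSO) for 12, 24 or 48 h, then incubated for 3 h at 37 °C with a cocktail of isoform-specific CYP substrates (phenacetin for CYP1A2, bupropion for CYP2B6, amodiaquine for CYP2C8, tolbutamide for CYP2C9, mephenytoin for CYP2C19, propafenone for CYP2D6, atorvastatin for CYP3A4). Metabolite formation was quantified by LC-MS as a measure of CYP activity and reported as fold change over solvent control (mean ± SD, n=3). Values below the LLOQ were set to half the LLOQ.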

CYP2C19 = CYP2C19 (UniProt P33261)
CYP2C19, sequence (P33261 whole entry): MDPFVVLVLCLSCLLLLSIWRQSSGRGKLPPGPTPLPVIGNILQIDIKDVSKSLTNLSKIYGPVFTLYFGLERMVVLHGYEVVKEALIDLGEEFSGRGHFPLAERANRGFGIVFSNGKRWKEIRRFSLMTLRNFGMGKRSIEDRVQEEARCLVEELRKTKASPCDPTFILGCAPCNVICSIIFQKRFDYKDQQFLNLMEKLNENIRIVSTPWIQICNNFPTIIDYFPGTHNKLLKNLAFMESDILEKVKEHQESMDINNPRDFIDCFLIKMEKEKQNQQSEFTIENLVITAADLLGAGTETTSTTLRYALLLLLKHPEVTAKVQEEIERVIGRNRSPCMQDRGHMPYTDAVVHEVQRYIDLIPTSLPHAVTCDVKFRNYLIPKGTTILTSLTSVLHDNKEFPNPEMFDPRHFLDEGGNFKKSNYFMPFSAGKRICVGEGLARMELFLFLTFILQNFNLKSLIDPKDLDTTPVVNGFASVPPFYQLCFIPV
Procedure: as §1

CYP2C9 = CYP2C9 (UniProt P11712)
CYP2C9, sequence (P11712 whole entry): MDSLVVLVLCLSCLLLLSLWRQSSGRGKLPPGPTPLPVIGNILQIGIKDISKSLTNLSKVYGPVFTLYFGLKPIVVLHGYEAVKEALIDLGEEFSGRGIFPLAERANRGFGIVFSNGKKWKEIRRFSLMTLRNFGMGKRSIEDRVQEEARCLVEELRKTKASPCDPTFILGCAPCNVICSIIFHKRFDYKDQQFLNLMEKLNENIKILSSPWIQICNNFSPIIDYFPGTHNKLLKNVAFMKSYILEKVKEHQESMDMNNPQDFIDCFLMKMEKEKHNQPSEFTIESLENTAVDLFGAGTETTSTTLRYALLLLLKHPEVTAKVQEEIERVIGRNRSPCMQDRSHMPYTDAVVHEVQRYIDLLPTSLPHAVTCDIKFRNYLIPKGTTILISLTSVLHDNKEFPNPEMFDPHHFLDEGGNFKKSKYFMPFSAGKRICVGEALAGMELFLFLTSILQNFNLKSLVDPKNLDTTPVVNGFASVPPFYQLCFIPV
Procedure: as §1

CYP1A2 = biological target: T1, CYP1A2 (UniProt P05177)
T1 sequence (whole entry): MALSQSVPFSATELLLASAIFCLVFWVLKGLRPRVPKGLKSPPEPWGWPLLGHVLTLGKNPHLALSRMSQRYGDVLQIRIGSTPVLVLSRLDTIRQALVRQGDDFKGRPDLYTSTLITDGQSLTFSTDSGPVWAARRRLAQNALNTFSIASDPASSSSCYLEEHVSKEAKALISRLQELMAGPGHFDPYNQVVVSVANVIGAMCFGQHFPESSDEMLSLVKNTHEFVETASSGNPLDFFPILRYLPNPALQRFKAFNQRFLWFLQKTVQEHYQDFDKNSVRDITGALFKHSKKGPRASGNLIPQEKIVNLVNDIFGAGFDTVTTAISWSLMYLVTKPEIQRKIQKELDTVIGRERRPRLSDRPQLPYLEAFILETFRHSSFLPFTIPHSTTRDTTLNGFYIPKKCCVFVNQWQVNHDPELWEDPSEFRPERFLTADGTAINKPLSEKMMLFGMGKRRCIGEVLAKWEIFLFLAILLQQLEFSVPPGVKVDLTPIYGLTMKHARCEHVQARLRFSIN
Procedure: as §1

CYP2B6 = biological target: T2, CYP2B6 (UniProt P20813)
T2 sequence (whole entry): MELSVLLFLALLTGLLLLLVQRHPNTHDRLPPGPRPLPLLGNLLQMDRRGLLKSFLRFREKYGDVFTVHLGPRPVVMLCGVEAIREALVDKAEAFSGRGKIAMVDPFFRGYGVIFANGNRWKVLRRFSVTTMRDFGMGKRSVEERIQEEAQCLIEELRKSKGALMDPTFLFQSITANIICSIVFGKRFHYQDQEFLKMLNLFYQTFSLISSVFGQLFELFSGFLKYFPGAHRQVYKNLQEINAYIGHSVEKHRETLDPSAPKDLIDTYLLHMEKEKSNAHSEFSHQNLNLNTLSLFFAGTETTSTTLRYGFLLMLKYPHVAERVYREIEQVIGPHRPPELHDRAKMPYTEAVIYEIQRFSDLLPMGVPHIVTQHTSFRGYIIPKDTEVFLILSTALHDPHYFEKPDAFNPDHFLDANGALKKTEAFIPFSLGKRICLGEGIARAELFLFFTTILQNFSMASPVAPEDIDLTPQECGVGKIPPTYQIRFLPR
Procedure: as §1

CYP2D6 = CYP2D6 (UniProt P10635)
CYP2D6, sequence (P10635 whole entry): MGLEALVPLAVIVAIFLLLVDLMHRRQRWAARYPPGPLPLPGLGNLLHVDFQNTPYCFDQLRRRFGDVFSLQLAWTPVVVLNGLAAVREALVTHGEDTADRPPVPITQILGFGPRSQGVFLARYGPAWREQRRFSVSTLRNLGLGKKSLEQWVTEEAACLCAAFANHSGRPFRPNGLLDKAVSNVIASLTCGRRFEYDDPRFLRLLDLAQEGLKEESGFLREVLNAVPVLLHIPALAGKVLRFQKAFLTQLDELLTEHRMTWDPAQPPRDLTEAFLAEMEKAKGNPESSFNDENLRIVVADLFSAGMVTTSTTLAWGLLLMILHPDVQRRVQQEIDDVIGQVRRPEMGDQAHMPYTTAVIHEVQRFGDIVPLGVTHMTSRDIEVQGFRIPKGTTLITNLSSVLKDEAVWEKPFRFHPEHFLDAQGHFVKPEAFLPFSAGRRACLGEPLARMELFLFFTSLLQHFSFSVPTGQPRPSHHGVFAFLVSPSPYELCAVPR
Procedure: as §1

CYP2C8 = biological target: T3, CYP2C8 (UniProt P10632)
T3 sequence (whole entry): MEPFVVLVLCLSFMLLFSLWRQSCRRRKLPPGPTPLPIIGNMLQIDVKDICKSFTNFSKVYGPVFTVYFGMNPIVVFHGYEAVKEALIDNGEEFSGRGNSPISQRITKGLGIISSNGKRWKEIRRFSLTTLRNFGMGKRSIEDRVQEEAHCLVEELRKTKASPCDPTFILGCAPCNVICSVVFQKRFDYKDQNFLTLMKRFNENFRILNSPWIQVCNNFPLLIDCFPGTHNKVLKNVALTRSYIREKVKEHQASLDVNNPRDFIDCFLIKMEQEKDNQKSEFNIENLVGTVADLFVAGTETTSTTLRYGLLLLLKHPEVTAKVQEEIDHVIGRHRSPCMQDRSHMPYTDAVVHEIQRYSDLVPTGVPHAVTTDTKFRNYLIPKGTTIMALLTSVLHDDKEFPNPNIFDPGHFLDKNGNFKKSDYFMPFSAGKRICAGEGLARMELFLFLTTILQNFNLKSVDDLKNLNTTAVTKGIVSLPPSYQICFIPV
Procedure: as §1

CYP3A4, sequence (P08684 whole entry, canonical isoform): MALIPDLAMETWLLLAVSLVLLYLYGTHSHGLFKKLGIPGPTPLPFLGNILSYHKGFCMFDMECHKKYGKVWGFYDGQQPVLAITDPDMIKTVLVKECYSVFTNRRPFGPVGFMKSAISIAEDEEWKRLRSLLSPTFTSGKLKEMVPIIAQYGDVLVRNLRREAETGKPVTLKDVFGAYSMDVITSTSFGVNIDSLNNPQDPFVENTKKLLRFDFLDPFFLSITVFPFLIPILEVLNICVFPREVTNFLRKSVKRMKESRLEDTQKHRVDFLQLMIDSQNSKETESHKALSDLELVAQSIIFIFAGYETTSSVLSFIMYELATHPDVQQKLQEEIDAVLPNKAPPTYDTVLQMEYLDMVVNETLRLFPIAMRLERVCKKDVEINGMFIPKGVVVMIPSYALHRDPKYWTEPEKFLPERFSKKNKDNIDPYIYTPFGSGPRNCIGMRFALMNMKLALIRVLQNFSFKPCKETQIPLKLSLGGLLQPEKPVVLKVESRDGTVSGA

c1ccc2c3c(ccc2c1)-c1cccc2cccc-3c12 [benzo[j]fluoranthene]
CYP enzyme activity
Settings | CYP1A2 | CYP2B6 | CYP2C8 | CYP2C9 | CYP2C19 | CYP2D6 | CYP3A4
1 µM, treatment time 12 h | 3.57 | 1.02 | 0.921 | 0.852 | 0.86 | 1.28 | 0.809
1 µM, treatment time 24 h | 2.09 | 1.27 | 0.903 | 0.88 | 0.826 | 0.87 | 0.702
1 µM, treatment time 48 h | 1.1 | 0.856 | 0.974 | 0.835 | 0.948 | 0.759 | 0.666
5 µM, treatment time 12 h | 6.59 | 1.21 | 0.894 | 0.826 | 0.97 | 1.94 | 0.883
5 µM, treatment time 24 h | 12.1 | 2.01 | 0.779 | 0.844 | 0.9 | 1.61 | 0.728
5 µM, treatment time 48 h | 4.57 | 1.32 | 0.798 | 0.734 | 0.882 | 0.711 | 0.694
10 µM, treatment time 12 h | 1.21 | 1.04 | 0.785 | 0.731 | 0.84 | 1.13 | 0.916
10 µM, treatment time 24 h | 23 | 2.03 | 0.751 | 0.771 | 0.867 | 2.94 | 0.715
10 µM, treatment time 48 h | 9.96 | 1.83 | 0.688 | 0.75 | 0.914 | 0.838 | 0.636

c1ccc2cc3c(cc2c1)-c1cccc2cccc-3c12 [benzo[k]fluoranthene]
CYP enzyme activity
Settings | CYP1A2 | CYP2B6 | CYP2C8 | CYP2C9 | CYP2C19 | CYP2D6 | CYP3A4
1 µM, treatment time 12 h | 7.62 | 0.673 | 0.918 | 0.808 | 0.834 | 1.93 | 0.73
1 µM, treatment time 24 h | 15.3 | 0.763 | 0.793 | 0.744 | 0.702 | 1.9 | 0.633
1 µM, treatment time 48 h | 25.3 | 0.806 | 0.812 | 0.704 | 0.832 | 1.36 | 0.544
5 µM, treatment time 12 h | 9.06 | 0.751 | 0.875 | 0.76 | 0.854 | 2.35 | 0.89
5 µM, treatment time 24 h | 17.8 | 0.806 | 0.682 | 0.67 | 0.723 | 2.71 | 0.676
5 µM, treatment time 48 h | 27.3 | 0.574 | 0.278 | 0.396 | 0.577 | 1.62 | 0.342
10 µM, treatment time 12 h | 5.83 | 0.741 | 0.759 | 0.725 | 0.76 | 2.05 | 0.93
10 µM, treatment time 24 h | 16.9 | 0.923 | 0.625 | 0.594 | 0.754 | 2.98 | 0.732
10 µM, treatment time 48 h | 17.5 | 0.446 | 0.164 | 0.312 | 0.455 | 1.49 | 0.283

c1cc2ccc3cccc4ccc(c1)c2c34 [pyrene]
CYP enzyme activity
Settings | CYP1A2 | CYP2B6 | CYP2C8 | CYP2C9 | CYP2C19 | CYP2D6 | CYP3A4
1 µM, treatment time 12 h | 1.18 | 1.1 | 1.01 | 0.925 | 0.893 | 0.973 | 0.912
1 µM, treatment time 24 h | 1.15 | 1.42 | 1.04 | 1.07 | 1.04 | 0.894 | 0.91
1 µM, treatment time 48 h | 1.07 | 1.3 | 1.07 | 1.18 | 1.16 | 0.996 | 0.931
5 µM, treatment time 12 h | 1.32 | 1.41 | 0.921 | 0.982 | 1.06 | 1.07 | 0.987
5 µM, treatment time 24 h | 1.42 | 2.27 | 1.07 | 1.08 | 1.06 | 1.04 | 1.01
5 µM, treatment time 48 h | 1.28 | 2.75 | 1.1 | 1.14 | 1.15 | 0.942 | 1.07
10 µM, treatment time 12 h | 1.31 | 1.33 | 0.924 | 0.914 | 1.02 | 1.11 | 0.916
10 µM, treatment time 24 h | 1.57 | 2.4 | 1.14 | 1.08 | 1.18 | 1.2 | 1.21
10 µM, treatment time 48 h | 1.52 | 3.6 | 1.15 | 1.45 | 1.3 | 1.12 | 1.32
